Data taken from paper PMC13054725 (2026).

Assays:
[1] = tested on: Dopa-A′ (DNA, aptamer) CGACGCCAGTTTGAAGGTTCGTTCGCAGGTGTGGAGTGACGTCG; assay: ITC; settings: PBS 1x, 2 mM Mg2+; 1x PBS, 2 mM MgCl2, 25 °C; one-site fit
[2] = tested on: Dopa-A (DA-A) (DNA, aptamer) GACGACTCCAGTTTGAAGGTTCGTTCGCAGGTGTGGAGTGAAGTCGTC; assay: ITC; settings: PBS 1x, 2 mM Mg2+; 1x PBS, 2 mM MgCl2, 25 °C; one-site fit

- Kd [1]: 3.5 µM
- Kd [2]: 2.7 µM
SMILES: NCCc1ccc(O)c(O)c1
